Test results: the supplement of paper PMC10307832

How the values were obtained:
Experiment in all cases: relative viability (nuclei count vs DMSO), 5 days (fraction); higher = more cells survive
NCI-H1993 = test system: NCI-H1993
Outline: (§1)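 Dosing by pin tool came one day after lung cancer cell lines were seeded in 1536-well plates, using either one drug or a fixed anchor-drug dose plus five library-drug doses (not always all listed) in √10 steps. After 5 days, nuclei were counted on 4× images. Relative viability is treated-well nuclei count divided by vehicle-well nuclei count, and values are medians of duplicate plates.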

PC-3 [JPC-3] = test system: PC-3 [JPC-3]
Outline: as §1

NCI-H1975 = test system: NCI-H1975
Outline: as §1

HCC-15 = test system: HCC-15
Outline: as §1

LU99A = test system: LU99A
Outline: as §1

NCI-H838 = test system: NCI-H838
Outline: as §1

LC-2-ad = test system: LC-2-ad
Outline: as §1

HARA = test system: HARA
Outline: as §1

NCI-H1734 = test system: NCI-H1734
Outline: as §1

NCI-H1944 = test system: NCI-H1944
Outline: as §1

NCI-H1666 = test system: NCI-H1666
Outline: as §1

NCI-H2228 = test system: NCI-H2228
Outline: as §1

NCI-H1395 = test system: NCI-H1395
Outline: as §1

NCI-H3122 = test system: NCI-H3122
Outline: as §1

NCI-H661 = test system: NCI-H661
Outline: as §1

CAL-12T = test system: CAL-12T
Outline: as §1

H3255 = test system: H3255
Outline: as §1

NCI-H520 = test system: NCI-H520
Outline: as §1

COR-L 105 = test system: COR-L 105
Outline: as §1

PC-14 = test system: PC-14
Outline: as §1

NCI-H647 = test system: NCI-H647
Outline: as §1

SK-LU-1 = test system: SK-LU-1
Outline: as §1

Structure (SMILES): O=c1[nH]c2ccccc2n1C1CCN(CCCC(c2ccc(F)cc2)c2ccc(F)cc2)CC1 [Pimozide] + CCNC(=O)c1noc(-c2cc(C(C)C)c(O)cc2O)c1-c1ccc(CN2CCOCC2)cc1 [Luminespib] (partner 0.01 µM)
- relative viability (NCI-H1993; first compound 0.08 µM): 0.729
- relative viability (NCI-H1993; first compound 0.253 µM): 0.809
- relative viability (NCI-H1993; first compound 0.8 µM): 0.77
- relative viability (NCI-H1993; first compound 2.53 µM): 0.79
- relative viability (NCI-H1993; first compound 8 µM): 0.425
- relative viability (PC-3 [JPC-3]; first compound 0.08 µM): 0.402
- relative viability (PC-3 [JPC-3]; first compound 0.253 µM): 0.714
- relative viability (PC-3 [JPC-3]; first compound 0.8 µM): 0.699
- relative viability (PC-3 [JPC-3]; first compound 2.53 µM): 0.723
- relative viability (PC-3 [JPC-3]; first compound 8 µM): 0.599
- relative viability (NCI-H1975; first compound 0.08 µM): 0.213
- relative viability (NCI-H1975; first compound 0.253 µM): 0.337
- relative viability (NCI-H1975; first compound 0.8 µM): 0.384
- relative viability (NCI-H1975; first compound 2.53 µM): 0.239
- relative viability (NCI-H1975; first compound 8 µM): 0.18
- relative viability (HCC-15; first compound 0.08 µM): 0.308
- relative viability (HCC-15; first compound 0.253 µM): 0.288
- relative viability (HCC-15; first compound 0.8 µM): 0.257
- relative viability (HCC-15; first compound 2.53 µM): 0.175
- relative viability (HCC-15; first compound 8 µM): 0.308
- relative viability (LU99A; first compound 0.08 µM): 0.242
- relative viability (LU99A; first compound 0.253 µM): 0.247
- relative viability (LU99A; first compound 0.8 µM): 0.263
- relative viability (LU99A; first compound 2.53 µM): 0.242
- relative viability (LU99A; first compound 8 µM): 0.233
- relative viability (NCI-H838; first compound 0.08 µM): 0.263
- relative viability (NCI-H838; first compound 0.253 µM): 0.379
- relative viability (NCI-H838; first compound 0.8 µM): 0.309
- relative viability (NCI-H838; first compound 2.53 µM): 0.296
- relative viability (NCI-H838; first compound 8 µM): 0.244
- relative viability (LC-2-ad; first compound 0.08 µM): 1.1
- relative viability (LC-2-ad; first compound 0.253 µM): 0.969
- relative viability (LC-2-ad; first compound 0.8 µM): 0.935
- relative viability (LC-2-ad; first compound 2.53 µM): 0.985
- relative viability (LC-2-ad; first compound 8 µM): 0.993
- relative viability (HARA; first compound 0.253 µM): 0.949
- relative viability (HARA; first compound 0.8 µM): 0.684
- relative viability (HARA; first compound 2.53 µM): 0.568
- relative viability (HARA; first compound 8 µM): 0.795
- relative viability (NCI-H1734; first compound 0.08 µM): 0.168
- relative viability (NCI-H1734; first compound 0.253 µM): 0.17
- relative viability (NCI-H1734; first compound 2.53 µM): 0.154
- relative viability (NCI-H1734; first compound 8 µM): 0.374
- relative viability (NCI-H1944; first compound 0.08 µM): 0.634
- relative viability (NCI-H1944; first compound 0.253 µM): 0.665
- relative viability (NCI-H1944; first compound 0.8 µM): 0.644
- relative viability (NCI-H1944; first compound 2.53 µM): 0.668
- relative viability (NCI-H1944; first compound 8 µM): 0.719
- relative viability (NCI-H1666; first compound 0.08 µM): 0.922
- relative viability (NCI-H1666; first compound 0.253 µM): 1.03
- relative viability (NCI-H1666; first compound 0.8 µM): 0.979
- relative viability (NCI-H1666; first compound 2.53 µM): 0.942
- relative viability (NCI-H1666; first compound 8 µM): 0.932
- relative viability (NCI-H2228; first compound 0.08 µM): 0.116
- relative viability (NCI-H2228; first compound 0.253 µM): 0.149
- relative viability (NCI-H2228; first compound 0.8 µM): 0.152
- relative viability (NCI-H2228; first compound 2.53 µM): 0.18
- relative viability (NCI-H2228; first compound 8 µM): 0.122
- relative viability (NCI-H1395; first compound 0.08 µM): 0.846
- relative viability (NCI-H1395; first compound 0.253 µM): 0.595
- relative viability (NCI-H1395; first compound 0.8 µM): 0.704
- relative viability (NCI-H1395; first compound 2.53 µM): 0.927
- relative viability (NCI-H1395; first compound 8 µM): 0.683
- relative viability (NCI-H3122; first compound 0.08 µM): 0.109
- relative viability (NCI-H3122; first compound 0.253 µM): 0.0961
- relative viability (NCI-H3122; first compound 0.8 µM): 0.105
- relative viability (NCI-H3122; first compound 2.53 µM): 0.0832
- relative viability (NCI-H3122; first compound 8 µM): 0.0656
- relative viability (NCI-H661; first compound 0.08 µM): 0.929
- relative viability (NCI-H661; first compound 0.253 µM): 0.879
- relative viability (NCI-H661; first compound 0.8 µM): 0.887
- relative viability (NCI-H661; first compound 2.53 µM): 0.878
- relative viability (NCI-H661; first compound 8 µM): 0.896
- relative viability (CAL-12T; first compound 0.08 µM): 0.305
- relative viability (CAL-12T; first compound 0.253 µM): 0.408
- relative viability (CAL-12T; first compound 0.8 µM): 0.186
- relative viability (CAL-12T; first compound 2.53 µM): 0.514
- relative viability (CAL-12T; first compound 8 µM): 0.168
- relative viability (H3255; first compound 0.253 µM): 0.926
- relative viability (H3255; first compound 0.8 µM): 0.684
- relative viability (H3255; first compound 2.53 µM): 0.883
- relative viability (H3255; first compound 8 µM): 0.799
- relative viability (NCI-H520; first compound 0.08 µM): 0.227
- relative viability (NCI-H520; first compound 0.253 µM): 0.219
- relative viability (NCI-H520; first compound 0.8 µM): 0.194
- relative viability (NCI-H520; first compound 2.53 µM): 0.227
- relative viability (NCI-H520; first compound 8 µM): 0.219
- relative viability (COR-L 105; first compound 0.253 µM): 0.885
- relative viability (COR-L 105; first compound 0.8 µM): 0.631
- relative viability (COR-L 105; first compound 2.53 µM): 0.879
- relative viability (COR-L 105; first compound 8 µM): 0.687
- relative viability (PC-14; first compound 0.253 µM): 0.181
- relative viability (PC-14; first compound 2.53 µM): 0.15
- relative viability (PC-14; first compound 8 µM): 0.111
- relative viability (NCI-H647; first compound 0.08 µM): 0.095
- relative viability (NCI-H647; first compound 0.253 µM): 0.0882
- relative viability (NCI-H647; first compound 0.8 µM): 0.196
- relative viability (NCI-H647; first compound 2.53 µM): 0.096
- relative viability (NCI-H647; first compound 8 µM): 0.109
- relative viability (SK-LU-1; first compound 0.08 µM): 0.219
- relative viability (SK-LU-1; first compound 0.253 µM): 0.197
- relative viability (SK-LU-1; first compound 0.8 µM): 0.206
- relative viability (SK-LU-1; first compound 2.53 µM): 0.183
- relative viability (SK-LU-1; first compound 8 µM): 0.206
